Reference: the supplement of paper PMC10307832

Tests used:
Experiment in all cases: relative viability (nuclei count vs DMSO), 5 days (fraction); higher = more cells survive
TPCA-1 + Vorinostat = compound: C1=CC(=CC=C1C2=CC(=C(S2)NC(=O)N)C(=O)N)F [TPCA-1] + O=C(CCCCCCC(=O)Nc1ccccc1)NO [Vorinostat] (partner 1 µM)
Outline: (§1)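 Nuclei were stained with Hoechst during a one-step fixation (final 0.05% Triton X-100, 1% formaldehyde, 1 ug/ml Hoechst) carried out 5 days after dosing, then counted on 4× images. The cells, lung cancer lines in 1536-well plates, had been dosed by pin tool the day after seeding with one drug alone or a fixed anchor-drug dose plus five library-drug doses (not always all listed) in √10 steps. Relative viability is the nuclei count in treated wells divided by that in vehicle wells, and each value is the median of duplicate plates.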

[1] = compound: C[C@]12O[C@H](C[C@]1(O)CO)n1c3ccccc3c3c4c(c5c6ccccc6n2c5c31)CNC4=O [Lestaurtinib] + O=C(CCCCCCC(=O)Nc1ccccc1)NO [Vorinostat] (partner 1 µM)
Outline: as §1

[2] = compound: C[C@]12O[C@H](C[C@]1(O)CO)n1c3ccccc3c3c4c(c5c6ccccc6n2c5c31)CNC4=O [Lestaurtinib] + CS(=O)(=O)N1CCN(Cc2cc3nc(-c4cccc5[nH]ncc45)nc(N4CCOCC4)c3s2)CC1 [Pictilisib] (partner 1 µM)
Outline: as §1

[3] = compound: C1/C(=C\C2=CC=CS2)/C(=O)/C(=C/C3=CC=CS3)/C1 + CCNC(=O)c1noc(-c2cc(C(C)C)c(O)cc2O)c1-c1ccc(CN2CCOCC2)cc1 [Luminespib] (partner 0.01 µM)
Outline: as §1

Cell Line: NCI-H2405
- relative viability (TPCA-1 + Vorinostat; first compound 0.04 µM): 1.12
- relative viability (TPCA-1 + Vorinostat; first compound 0.1265 µM): 0.983
- relative viability (TPCA-1 + Vorinostat; first compound 0.4 µM): 1.15
- relative viability (TPCA-1 + Vorinostat; first compound 1.265 µM): 0.975
- relative viability (TPCA-1 + Vorinostat; first compound 4 µM): 0.103
- relative viability ([1]; first compound 0.005 µM): 1.03
- relative viability ([1]; first compound 0.01581 µM): 1.29
- relative viability ([1]; first compound 0.05 µM): 0.88
- relative viability ([1]; first compound 0.1581 µM): 0.938
- relative viability ([1]; first compound 0.5 µM): 0.253
- relative viability ([2]; first compound 0.005 µM): 0.417
- relative viability ([2]; first compound 0.01581 µM): 0.404
- relative viability ([2]; first compound 0.05 µM): 0.356
- relative viability ([2]; first compound 0.1581 µM): 0.345
- relative viability ([2]; first compound 0.5 µM): 0.202
- relative viability ([3]; first compound 0.2 µM): 0.818
- relative viability ([3]; first compound 0.6325 µM): 0.773
- relative viability ([3]; first compound 2 µM): 0.743
- relative viability ([3]; first compound 6.325 µM): 0.673
- relative viability ([3]; first compound 20 µM): 0.675

Cell Line: NCI-H3122
- relative viability (TPCA-1 + Vorinostat; first compound 0.04 µM): 1.34
- relative viability (TPCA-1 + Vorinostat; first compound 0.1265 µM): 0.814
- relative viability (TPCA-1 + Vorinostat; first compound 0.4 µM): 0.955
- relative viability (TPCA-1 + Vorinostat; first compound 1.265 µM): 1
- relative viability (TPCA-1 + Vorinostat; first compound 4 µM): 0.897
- relative viability ([1]; first compound 0.005 µM): 1.16
- relative viability ([1]; first compound 0.01581 µM): 1.11
- relative viability ([1]; first compound 0.05 µM): 0.858
- relative viability ([1]; first compound 0.1581 µM): 1.14
- relative viability ([1]; first compound 0.5 µM): 0.442
- relative viability ([2]; first compound 0.005 µM): 0.671
- relative viability ([2]; first compound 0.01581 µM): 0.798
- relative viability ([2]; first compound 0.05 µM): 0.628
- relative viability ([2]; first compound 0.1581 µM): 0.45
- relative viability ([2]; first compound 0.5 µM): 0.423
- relative viability ([3]; first compound 0.2 µM): 0.112
- relative viability ([3]; first compound 0.6325 µM): 0.0975
- relative viability ([3]; first compound 2 µM): 0.0926
- relative viability ([3]; first compound 6.325 µM): 0.0901
- relative viability ([3]; first compound 20 µM): 0.086

Cell Line: PC-3 [JPC-3]
- relative viability (TPCA-1 + Vorinostat; first compound 0.04 µM): 0.787
- relative viability (TPCA-1 + Vorinostat; first compound 0.1265 µM): 0.765
- relative viability (TPCA-1 + Vorinostat; first compound 0.4 µM): 0.963
- relative viability (TPCA-1 + Vorinostat; first compound 1.265 µM): 0.818
- relative viability (TPCA-1 + Vorinostat; first compound 4 µM): 0.284
- relative viability ([1]; first compound 0.005 µM): 0.644
- relative viability ([1]; first compound 0.01581 µM): 1.15
- relative viability ([1]; first compound 0.05 µM): 0.866
- relative viability ([1]; first compound 0.1581 µM): 0.816
- relative viability ([1]; first compound 0.5 µM): 0.469
- relative viability ([2]; first compound 0.005 µM): 0.77
- relative viability ([2]; first compound 0.01581 µM): 0.736
- relative viability ([2]; first compound 0.05 µM): 0.555
- relative viability ([2]; first compound 0.1581 µM): 0.606
- relative viability ([2]; first compound 0.5 µM): 0.408
- relative viability ([3]; first compound 0.2 µM): 0.807
- relative viability ([3]; first compound 0.6325 µM): 0.645
- relative viability ([3]; first compound 2 µM): 0.689
- relative viability ([3]; first compound 6.325 µM): 0.556
- relative viability ([3]; first compound 20 µM): 0.659

Cell Line: PC-14
- relative viability (TPCA-1 + Vorinostat; first compound 0.04 µM): 0.838
- relative viability (TPCA-1 + Vorinostat; first compound 0.1265 µM): 0.802
- relative viability (TPCA-1 + Vorinostat; first compound 0.4 µM): 0.802
- relative viability (TPCA-1 + Vorinostat; first compound 1.265 µM): 0.639
- relative viability (TPCA-1 + Vorinostat; first compound 4 µM): 0.448
- relative viability ([1]; first compound 0.005 µM): 0.718
- relative viability ([1]; first compound 0.01581 µM): 0.558
- relative viability ([1]; first compound 0.05 µM): 0.509
- relative viability ([1]; first compound 0.1581 µM): 0.324
- relative viability ([1]; first compound 0.5 µM): 0.0543
- relative viability ([2]; first compound 0.005 µM): 0.639
- relative viability ([2]; first compound 0.01581 µM): 0.49
- relative viability ([2]; first compound 0.05 µM): 0.283
- relative viability ([2]; first compound 0.1581 µM): 0.254
- relative viability ([2]; first compound 0.5 µM): 0.171
- relative viability ([3]; first compound 0.2 µM): 0.139
- relative viability ([3]; first compound 0.6325 µM): 0.145
- relative viability ([3]; first compound 2 µM): 0.179
- relative viability ([3]; first compound 6.325 µM): 0.187
- relative viability ([3]; first compound 20 µM): 0.15

Cell Line: RERF-LC-KJ
- relative viability (TPCA-1 + Vorinostat; first compound 0.04 µM): 0.76
- relative viability (TPCA-1 + Vorinostat; first compound 0.1265 µM): 0.688
- relative viability (TPCA-1 + Vorinostat; first compound 0.4 µM): 0.664
- relative viability (TPCA-1 + Vorinostat; first compound 1.265 µM): 0.671
- relative viability (TPCA-1 + Vorinostat; first compound 4 µM): 0.46
- relative viability ([1]; first compound 0.005 µM): 0.56
- relative viability ([1]; first compound 0.01581 µM): 0.683
- relative viability ([1]; first compound 0.05 µM): 0.538
- relative viability ([1]; first compound 0.1581 µM): 0.588
- relative viability ([1]; first compound 0.5 µM): 0.375
- relative viability ([2]; first compound 0.005 µM): 0.593
- relative viability ([2]; first compound 0.01581 µM): 0.235
- relative viability ([2]; first compound 0.05 µM): 0.458
- relative viability ([2]; first compound 0.1581 µM): 0.387
- relative viability ([2]; first compound 0.5 µM): 0.243
- relative viability ([3]; first compound 0.2 µM): 1.26
- relative viability ([3]; first compound 0.6325 µM): 1.36
- relative viability ([3]; first compound 2 µM): 1.25
- relative viability ([3]; first compound 6.325 µM): 1.15
- relative viability ([3]; first compound 20 µM): 1.14

Cell Line: SK-LU-1
- relative viability (TPCA-1 + Vorinostat; first compound 0.04 µM): 0.872
- relative viability (TPCA-1 + Vorinostat; first compound 0.1265 µM): 0.672
- relative viability (TPCA-1 + Vorinostat; first compound 0.4 µM): 0.774
- relative viability (TPCA-1 + Vorinostat; first compound 1.265 µM): 0.577
- relative viability (TPCA-1 + Vorinostat; first compound 4 µM): 0.449
- relative viability ([1]; first compound 0.005 µM): 0.668
- relative viability ([1]; first compound 0.01581 µM): 0.667
- relative viability ([1]; first compound 0.05 µM): 0.491
- relative viability ([1]; first compound 0.1581 µM): 0.415
- relative viability ([1]; first compound 0.5 µM): 0.277
- relative viability ([2]; first compound 0.005 µM): 0.464
- relative viability ([2]; first compound 0.01581 µM): 0.464
- relative viability ([2]; first compound 0.05 µM): 0.297
- relative viability ([2]; first compound 0.1581 µM): 0.436
- relative viability ([2]; first compound 0.5 µM): 0.246
- relative viability ([3]; first compound 0.2 µM): 0.204
- relative viability ([3]; first compound 0.6325 µM): 0.191
- relative viability ([3]; first compound 2 µM): 0.202
- relative viability ([3]; first compound 6.325 µM): 0.181
- relative viability ([3]; first compound 20 µM): 0.214

Cell Line: SK-MES-1
- relative viability (TPCA-1 + Vorinostat; first compound 0.04 µM): 1.14
- relative viability (TPCA-1 + Vorinostat; first compound 0.1265 µM): 1.01
- relative viability (TPCA-1 + Vorinostat; first compound 0.4 µM): 0.966
- relative viability (TPCA-1 + Vorinostat; first compound 1.265 µM): 1.02
- relative viability (TPCA-1 + Vorinostat; first compound 4 µM): 0.438
- relative viability ([1]; first compound 0.005 µM): 1.18
- relative viability ([1]; first compound 0.01581 µM): 1.05
- relative viability ([1]; first compound 0.05 µM): 0.487
- relative viability ([1]; first compound 0.1581 µM): 0.411
- relative viability ([1]; first compound 0.5 µM): 0.215
- relative viability ([2]; first compound 0.005 µM): 0.322
- relative viability ([2]; first compound 0.01581 µM): 0.312
- relative viability ([2]; first compound 0.05 µM): 0.259
- relative viability ([2]; first compound 0.1581 µM): 0.262
- relative viability ([2]; first compound 0.5 µM): 0.177
- relative viability ([3]; first compound 0.2 µM): 0.868
- relative viability ([3]; first compound 0.6325 µM): 0.646
- relative viability ([3]; first compound 2 µM): 0.839
- relative viability ([3]; first compound 6.325 µM): 0.545
- relative viability ([3]; first compound 20 µM): 0.773

Cell Line: SW 1573
- relative viability (TPCA-1 + Vorinostat; first compound 0.04 µM): 0.998
- relative viability (TPCA-1 + Vorinostat; first compound 0.1265 µM): 0.6
- relative viability (TPCA-1 + Vorinostat; first compound 0.4 µM): 0.876
- relative viability (TPCA-1 + Vorinostat; first compound 1.265 µM): 0.787
- relative viability (TPCA-1 + Vorinostat; first compound 4 µM): 0.233
- relative viability ([1]; first compound 0.005 µM): 0.767
- relative viability ([1]; first compound 0.01581 µM): 0.864
- relative viability ([1]; first compound 0.05 µM): 0.488
- relative viability ([1]; first compound 0.1581 µM): 0.424
- relative viability ([1]; first compound 0.5 µM): 0.198
- relative viability ([2]; first compound 0.005 µM): 0.624
- relative viability ([2]; first compound 0.01581 µM): 0.562
- relative viability ([2]; first compound 0.05 µM): 0.454
- relative viability ([2]; first compound 0.1581 µM): 0.314
- relative viability ([2]; first compound 0.5 µM): 0.174
- relative viability ([3]; first compound 0.2 µM): 0.25
- relative viability ([3]; first compound 0.6325 µM): 0.192
- relative viability ([3]; first compound 2 µM): 0.194
- relative viability ([3]; first compound 6.325 µM): 0.161
- relative viability ([3]; first compound 20 µM): 0.181
